Data set [1] in a line: Particle size and polydispersity index (PDI) of nanolipid particles, dynamic light scattering. The format is physicochemical. The note with it: LNP formulation prepared from the named cationic lipid, 25° C. The method, then:
The particle size and polydispersity index (PDI) were determined by dynamic light scattering method using a Malvern laser particle size analyzer. 10 μL of liposome solution was diluted to 1 mL with RNase-free deionized water and added to a sample pool. Each sample was measured three times. The measurement conditions were: 90° scattering angle, 25° C.

The nature of data set [2]: Encapsulation rate, drug loading concentration and total RNA concentration detection (RiboGreen). The format is physicochemical. To be noted: LNP formulation of the named lipid. The text has this:
Encapsulation rate is a key quality attribute of liposomes. It refers to the percentage of drug content encapsulated in the lipid bilayer to the total amount of drug added, which can reflect the degree of drug encapsulation in liposomes. The Chinese Pharmacopoeia stipulates that the encapsulation rate should usually not be less than 80%.
The drug loading capacity is the ratio of the amount of drug in the liposome to the total amount of drug and carrier in the liposome. The drug loading capacity directly affects the clinical application dose of the drug, so the larger the drug loading capacity, the more it can meet clinical needs. The drug loading concentration is proportional to the drug loading capacity, and the relative proportion of the drug loading concentration can represent the relative proportion of the drug loading capacity. The relative proportion of the total RNA concentration can represent the relative proportion of the amount of mRNA carried by the LNP formulation.
1×TE buffer, 0.1% Triton X-100 buffer, and RiboGreen reagent (1:200) and mRNA standard stock solution were prepared.
An appropriate amount of sample was taken and added to an appropriate amount of 1×TE buffer, which was diluted to a solution containing about 2.8 μg of the test sample per 1 mL. Then the sample was added to a 96-well plate, where 50 μL of the diluted test sample or mRNA standard stock solution was added to each well, and then added with 1×TE buffer and 0.1% Triton X-100 buffer. The samples were incubated at 37° C. for 10 minutes, and 100 μL of RiboGreen reagent (1:200) was added to each well of the 96-well plate. The plate was centrifuged, and read using an ELISA reader, and the data was processed.

In data set [3] the test system is 293T cells. Nature of the data set: Fluorescence detection of Fluc-mRNA (cell transfection efficiency of LNP formulations). It is filed as cell-based. To be noted: for Relative light unit (RLU): LNP containing 0.3 μg Fluc-mRNA, 24 hours; for Multiples of values that equivalent to YK-201: RLU of YK-201 / RLU of the named lipid; for Multiples of values that equivalent to YK-202: RLU of YK-202 / RLU of the named lipid; for Multiples of values that equivalent to YK-209: RLU of YK-209 / RLU of the named lipid; for Ratio relative to SM-102: RLU of the named lipid / RLU of SM-102, times that of SM-102. The method, then: (§1) Cell recovery and passaging: 293T cells were recovered and cultured in culture dishes to the required cell number.
(§2) Plating: The cells in the culture dish were digested, counted, plated in a 96-well plate at 10,000 cells per well, or in a 12-well plate at 150,000 cells per well, and cultured overnight until the cells adhered to the wall.
(§3) Cell recovery and passage: The method was the same as in Example 3.
(§4) Plating: The method was the same as Example 3.
The LNP formulation containing 0.3 μg Fluc-mRNA (prepared according to Example 4, the LNP formulation carrier components were cationic lipids, neutral lipids, structured lipids and polymer-conjugated lipids at a molar ratio of 49:10:39.5:1.5, and the cationic lipids were cationic lipids listed in Table 1) was added to the cell culture medium of a 96-well plate, and cultured for 24 hours. After that, the corresponding reagents were added according to the instructions of the Gaussia Luciferase Assay Kit, and the fluorescence expression intensity of each well was detected by the IVIS fluorescence detection system. This experiment verified the transfection efficiency of the LNP formulation in the cell, and the specific detection results are shown in Tables 6-9.

Data set [4] relates to 293T cells. Nature of the data set: Cell survival rate assay (CCK-8). It is filed as cell-based. To be noted: LNP containing 1.5 μg Fluc-mRNA, 24 hours, CCK-8. The method, then: as §1, §2, §3, §4
The LNP formulations containing 1.5 μg Fluc-mRNA (prepared according to Example 4, the LNP formulation carrier components are cationic lipids, neutral lipids, structured lipids and polymer-conjugated lipids at a molar ratio of 49:10:39.5:1.5, wherein the cationic lipids are the cationic lipids listed in Table 1) and the Lipofectamine 3000 formulation were added to the cell culture medium of the 96-well plate, and the culture was continued for 24 hours. Then, 10 μL of CCK-8 solution was added to each well, and the culture plate was incubated in the incubator for 1 hour, and the absorbance at 450 nm was measured by a microplate reader.

Consider `CCCCCCC(CCCCCC)CCOC(=O)CCCCCN(CCCCCC(=O)OCCC(CCCCCC)CCCCCC)CCN(CCO)CCO` [YK-214, bis(3-hexylnonyl)-6,6-((2-(bis(2-hydroxyethyl)amino)ethyl)azadialkyl)dihexanoate], for which, in data set [1], the PDI is 31.5% and the Particle size amounted to 203 nm. For the same compound, in data set [2], the Drug loading concentration amounted to 38.16 µg/mL, the Encapsulation rate amounted to 96.7% and the “Total RNA concentration” value was determined as 39.46 µg/mL. Besides, in the data set with 293T cells [3], the “Relative light unit (RLU)” value worked out at 4582178 RLU, the “Multiples of values that equivalent to YK-201” value (from here on “Multiples … to YK-201”) is reported as 6.22, the “Multiples of values that equivalent to YK-202” value (“Multiples … to YK-202” below) turned out to be 6.54 and the “Multiples of values that equivalent to YK-209” value (shortened to “Multiples … to YK-209”) amounted to 4.60. Besides, the “Ratio relative to SM-102” value with 293T cells [3] turned out to be 2.75. For the same compound, in the data set with 293T cells [4], the Cell survival rate came out at 25.58%.
In the case of `CCCCCCCCCCOC(=O)CCCN(CCCCCC(=O)OCC(CCCCCCCC)CCCCCCCC)CCN(C)CCOC` [YK-216], in data set [1], the PDI was 13.7% and the Particle size worked out at 219 nm. Also, in data set [2], the Drug loading concentration came out at 27.36 µg/mL, the Encapsulation rate is on record as 61.3% and the “Total RNA concentration” value stood at 44.64 µg/mL. Moreover, in the data set on 293T cells [3], the “Relative light unit (RLU)” value was 2280300 RLU, the “Multiples … to YK-201” value is listed as 12.49, the “Multiples … to YK-202” value is recorded as 13.14 and the “Multiples … to YK-209” value came to 9.24. Further, the “Ratio relative to SM-102” value in the data set with 293T cells [3] is on record as 1.37. Besides, in the data set with 293T cells [4], the Cell survival rate is reported as 45.80%.
As for `CCCCCCCCCCOC(=O)CCCN(CCCCCC(=O)OCC(CCCCCCCC)CCCCCCCC)CCOC(=O)SCCCN(C)C` [YK-218, 2-octyldecyl-11-(4-(decyloxy)-4-oxobutyl)-2-methyl-7-oxo-8-oxo-6-thio-2,11-diazaheptane-17-carboxylate], in data set [1], the PDI was found to be 17.2% and the Particle size is on record as 222 nm. In data set [2], the Drug loading concentration came out at 36.50 µg/mL, the Encapsulation rate amounted to 78.2% and the “Total RNA concentration” value is 46.66 µg/mL. In the data set on 293T cells [3], the “Relative light unit (RLU)” value is recorded as 607080 RLU, the “Multiples … to YK-201” value stood at 46.92, the “Multiples … to YK-202” value came out at 49.35 and the “Multiples … to YK-209” value is 34.69. In the data set with 293T cells [3], the “Ratio relative to SM-102” value amounted to 0.36. The compound further came in with a Cell survival rate with 293T cells [4] of 72.84%.
In data set [1], `CCCCCCCCCCOC(=O)CCCN(CCCCCC(=O)OCC(CCCCCCCC)CCCCCCCC)C(=O)SCCCN(C)C` [YK-219] registered a PDI of 22.4% and a Particle size of 217 nm. In data set [2], the Drug loading concentration is 30.31 µg/mL, the Encapsulation rate was 64.2% and the “Total RNA concentration” value turned out to be 47.23 µg/mL. In the data set on 293T cells [3], the “Relative light unit (RLU)” value is recorded as 1505963 RLU, the “Multiples … to YK-201” value stood at 18.91, the “Multiples … to YK-202” value was 19.89 and the “Multiples … to YK-209” value stood at 13.98. In addition, the “Ratio relative to SM-102” value with 293T cells [3] turned out to be 0.90. The same compound had a Cell survival rate in the data set with 293T cells [4] of 58.61%.
In data set [1], `CCCCCCCCCCOC(=O)CCCN(CCCCCC(=O)OCCC(CCCCCC)CCCCCC)C(=O)SCCCN(C)C` [YK-220] registered a PDI of 26.6% and a Particle size of 221 nm. For the same compound, in data set [2], the Drug loading concentration came out at 25.27 µg/mL, the Encapsulation rate came to 57.5% and the “Total RNA concentration” value was determined as 43.92 µg/mL. For the same compound, in the data set on 293T cells [3], the “Relative light unit (RLU)” value came to 216398 RLU, the “Multiples … to YK-201” value is listed as 131.62, the “Multiples … to YK-202” value is reported as 138.44 and the “Multiples … to YK-209” value worked out at 97.32. Also, the “Ratio relative to SM-102” value with 293T cells [3] was 0.13. In addition, in the data set on 293T cells [4], the Cell survival rate is given as 58.99%.
In data set [1], `CCCCCCCCCCOC(=O)CCCN(CCCCCC(=O)OCC(CCCCCCCC)CCCCCCCC)CCN(C)CCNC` [YK-221] showed a PDI of 21.9% and a Particle size of 237 nm. Moreover, in data set [2], the Drug loading concentration came to 31.46 µg/mL, the Encapsulation rate was 95.4% and the “Total RNA concentration” value worked out at 32.98 µg/mL. Also, in the data set with 293T cells [3], the “Relative light unit (RLU)” value worked out at 27960 RLU, the “Multiples … to YK-201” value stood at 1018.69, the “Multiples … to YK-202” value amounted to 1071.44 and the “Multiples … to YK-209” value is recorded as 753.17. For the same compound, the “Ratio relative to SM-102” value in the data set with 293T cells [3] stood at 0.02. The Cell survival rate in the data set on 293T cells [4] was 20.95%.
As for `CCCCCCCCCCCOC(=O)CCCCCN(CCCCCCCC(=O)OC(CCCCCCCC)CCCCCCCC)CCN(C)CCNC` [YK-222], in data set [1], the PDI was determined as 30.4% and the Particle size is on record as 218 nm. In addition, in data set [2], the Drug loading concentration was 25.78 µg/mL, the Encapsulation rate is 94.0% and the “Total RNA concentration” value was 27.43 µg/mL. Moreover, in the data set with 293T cells [3], the “Relative light unit (RLU)” value was 606360 RLU, the “Multiples … to YK-201” value amounted to 46.97, the “Multiples … to YK-202” value is reported as 49.41 and the “Multiples … to YK-209” value was determined as 34.73. The “Ratio relative to SM-102” value with 293T cells [3] is 0.36. In the data set with 293T cells [4], the Cell survival rate is recorded as 33.75%.
As for `CCCCCCCCC(CCCCCCCC)OC(=O)CCCCCN(CCCCCC(=O)OC(CCCCCCCC)CCCCCCCC)CCN(C)CCNC` [YK-224], in data set [1], the PDI was determined as 30.3% and the Particle size was determined as 185 nm. In data set [2], the Drug loading concentration was 38.81 µg/mL, the Encapsulation rate was 98.7% and the “Total RNA concentration” value worked out at 39.31 µg/mL. In the data set with 293T cells [3], the “Relative light unit (RLU)” value stood at 88020 RLU, the “Multiples … to YK-201” value is listed as 323.59, the “Multiples … to YK-202” value worked out at 340.35 and the “Multiples … to YK-209” value was 239.25. Besides, the “Ratio relative to SM-102” value with 293T cells [3] stood at 0.05. In the data set on 293T cells [4], this compound showed a Cell survival rate of 23.47%.
In data set [1], `CCCCCCC(CCCCCC)CCOC(=O)CCCCCN(CCCCCC(=O)OCCC(CCCCCC)CCCCCC)CCN(C)CCNC` [YK-225] returned a PDI of 19.3% and a Particle size of 222 nm. In data set [2], the Drug loading concentration was determined as 38.74 µg/mL, the Encapsulation rate was determined as 98.0% and the “Total RNA concentration” value came to 39.53 µg/mL. In the data set with 293T cells [3], the “Relative light unit (RLU)” value came to 26145 RLU, the “Multiples … to YK-201” value is listed as 1089.41, the “Multiples … to YK-202” value is listed as 1145.82 and the “Multiples … to YK-209” value worked out at 805.46. Further, the “Ratio relative to SM-102” value with 293T cells [3] was 0.02. The same compound gave a Cell survival rate in the data set with 293T cells [4] of 43.41%.
